Experiments:
Trichoderma hyphae = assay: Antifungal activity of the two-filter delivery system on agar plates (halo of inhibition); assay type: cell-based; conditions: for inhibition of fungal growth (halo around filter): filters placed 6 h after seeding 5×10^6 spores, 28° C., overnight incubation, FIG. 3A; for inhibition of fungal growth (halo around filter), mature growth: filters placed after 24 hours incubation, further 16 h, FIG. 3B
Method: In this experiment, the effect of allicin released upon wetting of the two-filter delivery system on spores of Trichoderma hyphae was tested. In particular, four Petri dish plates containing nutrient agar for fungal growth were seeded with 5×10^6 spores of a test soil fungi (Trichoderma hyphae) and incubated at 28° C. […] Additional two plates in each of which a single glass fiber filter containing either the substrate or the enzyme were placed were used as controls and treated the same way. A fourth plate containing only the fungus served as the positive control, and a fifth plate without any fungus was used as the negative control.
A similar experiment was carried out with identical filters on Petri dish plates that contained a more mature Trichoderma hyphae growth (after 24 hours incubation from seeding of the same number of spores). The filters were placed as described above and the plates were incubated for another 16 h.

[1] = Storage stability of dry alliin/alliinase components and filters (potential to produce allicin); assay type: physicochemical; conditions: dry form at room temperature
[2] = tested on: nail fungus (onychomycosis); assay: Repeated topical application of pure allicin on infected toenails of volunteers; assay type: in vivo
Method: In this preliminary study, the effect of repeated topical application of pure allicin on an infected nail was examined. The study was performed on a group of 10 volunteers infected with nail fungus (onychomycosis), wherein only toenails showing visible signs of being infected with a nail fungus were chosen for the topical treatment. […] The allicin solution was kept at 4° C. in citrate buffer pH 6.0 containing 1 M urea in a dark flask. A round cotton pad was cut in the approximate dimensions and size of the infected toenail (1.3 cm diameter×0.3 cm thick). 0.5 ml of the allicin solution was slowly delivered with a pipette to the surface of the cotton pad and the wet cotton pad was placed on the nail, taking precaution so as not to touch the skin surrounding the nail. The toe with the cotton pad was then covered overnight with a strip made of nylon to secure the pad on the nail and to prevent the spread of the volatile smelly odor of allicin. This treatment was repeated every night for 14 days. […] The treatment was then repeated once a week until all the infected regions of the old nail were cut off.

various microorganisms = assay: Sensitivity tests of microorganisms to pure allicin and to allicin from dry alliin/alliinase mixtures (liquid culture, disk filters on agar, tampons); assay type: cell-based; conditions: for LD50: range over the various microorganisms tested
Method: In this experiment, the effect of allicin released upon wetting of the medicated tampons on various microorganisms, kindly provided by Dr. N. Keller from the clinical microbiology laboratory of the Sheba Medical Center (Tel HaShomer, Israel), was tested. The list of microorganisms included various types of yeasts, in particular, Saccharomyces cerevisiae, Candida albicans and Candida Glabrata; and several types of bacteria, in particular, group B Streptococci, methicillin-resistant Staphylococcus aureus (MRSA) and vancomycin-intermediate Staphylococcus aureus (VISA). In addition, two strains of Trichomonas vaginalis, one adherent to the plastic of the tube and the other non-adherent, were tested.
In addition, various mixtures of dry alliin and dry alliinase were placed inside the cleft of vaginal tampons to yield different amounts of allicin in tubes containing liquid medium with bacteria or yeasts, wherein following overnight incubation, aliquots were taken from the tubes and plated on nutrient agar plates, and the number of colonies developed was determined in comparison to untreated controls. The effects of allicin on Trichomonas vaginalis was tested in liquid cultures, and the viability of the trophozoites after exposure to different concentrations of allicin was determined by the methylene blue vital dye exclusion as previously described (Kiernan, 1974).
Dry glass fiber filters on which a solution containing 5, 20 or 30 μg of pure allicin was dripped just before placing on the seeded agar served as standards, and dry glass fiber filters that were placed on the seeded agar were used as controls.

Trichomonas vaginalis = assay: In vitro growth of Trichomonas vaginalis trophozoites with pure allicin (hemacytometer count); assay type: cell-based; conditions: 24 hours, 37° C.
Method: The effect of allicin on the different microorganisms was tested in (i) sensitivity tests to different concentrations of pure allicin in liquid culture tubes containing full nutrient medium; […] The effects of allicin on Trichomonas vaginalis was tested in liquid cultures, and the viability of the trophozoites after exposure to different concentrations of allicin was determined by the methylene blue vital dye exclusion as previously described (Kiernan, 1974). […] Aliquotes were taken following incubation of 24 hours and the number of trophozoites was counted using a hemacytometer.

[3] = kept at cold temperatures, pH around 6; cited from earlier work

Q: For alliinase, which “inhibition of fungal growth (halo around filter)” value (Trichoderma hyphae) is on record?
A: Its value is “No such halos were seen”.

Q: And the “inhibition of fungal growth (halo around filter), mature growth” value (Trichoderma hyphae)?
A: Its value is “such halo is not visible”.

Q: And the “preservation of potential for producing allicin” value [1]?
A: The value was “preserved their potential for producing allicin for several months”.

Q: With alliin as the compound, how does the “inhibition of fungal growth (halo around filter)” value (Trichoderma hyphae) read?
A: The value was “No such halos were seen”.

Q: What about the “inhibition of fungal growth (halo around filter), mature growth” value (Trichoderma hyphae) of the same compound?
A: Its value is “such halo is not visible”.

Q: With `C=CCS[S+]([O-])CC=C` (stereo not drawn) [allicin, diallyl thiosulfinate] as the compound, how does the “outcome of infected toenails after treatment” value ([2]; 0.5 ml of 0.5 mg/ml allicin solution (citrate buffer pH 6.0, 1 M urea) on cotton pad overnight, every night 14 days, then once a week, 10 volunteers) read?
A: The value was “eight individuals had a remarkably healthy regeneration of their toenails”.

Q: And the “tolerability: treatment not completed because of garlic smell” value ([2]; 10 volunteers)?
A: The value was “Two individuals did not complete the treatment”.

Q: What about the “color of the fungus in the nail” value ([2]; by the third day of the treatment) of the same compound?
A: The value was “turned from dark green to yellowish white”.

Q: And the “time toenails remained fungus free” value ([2]; in some cases)?
A: The value was “over 2 years”.

Q: And the “color of the emerging new nail” value ([2]; within two weeks)?
A: Its value is “resumed its natural color”.

Q: And the killing of microorganisms (various microorganisms; all experiments, irrespective of type of microorganism, FIGS. 4-5 and Table 1)?
A: Its killing of microorganisms is “effective killing”.

Q: And the LD50 (various microorganisms)?
A: Its LD50 is 8 to 15 µg/mL.

Q: What about the LD50 (various microorganisms; as μM allicin) of the same compound?
A: Its LD50 is 20 to 50 µM.

Q: What about the “Trophozoites (×10^4)” value (Trichomonas vaginalis; allicin 5 μg/ml) of the same compound?
A: Its value is 48 ×10^4.

Q: What about the “Trophozoites (×10^4)” value (Trichomonas vaginalis; allicin 10 μg/ml) of the same compound?
A: Its value is 45 ×10^4.

Q: And the “Trophozoites (×10^4)” value (Trichomonas vaginalis; allicin 15 μg/ml)?
A: The value was 8 ×10^4.

Q: What about the “Trophozoites (×10^4)” value (Trichomonas vaginalis; allicin 25 μg/ml) of the same compound?
A: The value was 3 ×10^4.

Q: And the degradation rate [3]?
A: The degradation rate was 8 %/month.

— patent publication US20110027341A1, “DEVICE FOR IN SITU PRODUCTION AND TOPICAL ADMINISTRATION OF ALLICIN” (YEDA RESEARCH AND DEVELOPMENT CO., LTD. at the Weizmann …, priority 2008, published 2011)
